Like-named read-outs stand apart in the source and are kept apart here. Each block holds one compound with its values, some of them ahead of it.
Columns and labels:
MCR-1 = biological target: T1, MCR-1 (Homo sapiens, UniProt Q01726); assay: Melanocortin receptor binding assay, competition with 125I-HP 467, HEK 293 cells expressing hMCR-1; details: for IC50: read-out: MC-1 IC50
T1 construct: expressed in transfected cells; host or cells: HEK 293
Method in brief: (§1)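 Test compounds compete on intact HEK 293 cells carrying hMCR-1 (2×10^4 per tube) or hMCR-4 (4×10^3 per tube), suspended in PBS, 10% calf serum, 1 mM CaCl2.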

MCR-4 = biological target: T2, MCR-4 (Homo sapiens, UniProt P32245); assay: Melanocortin receptor binding assay, competition with 125I-HP 467, HEK 293 cells expressing hMCR-4; details: for IC50: read-out: MC-4 IC50
T2 construct: expressed in transfected cells; host or cells: HEK 293
T2 sequence (P32245 whole entry): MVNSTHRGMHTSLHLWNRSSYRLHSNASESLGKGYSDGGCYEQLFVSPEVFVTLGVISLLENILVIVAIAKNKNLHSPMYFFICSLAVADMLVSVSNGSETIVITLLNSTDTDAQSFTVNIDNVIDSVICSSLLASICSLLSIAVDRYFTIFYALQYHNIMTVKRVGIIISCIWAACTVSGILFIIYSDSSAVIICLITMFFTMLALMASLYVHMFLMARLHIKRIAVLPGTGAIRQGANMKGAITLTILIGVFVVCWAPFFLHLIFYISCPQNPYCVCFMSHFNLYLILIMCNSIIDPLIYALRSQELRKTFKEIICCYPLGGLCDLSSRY
Method in brief: as §1

[1] = inhibition of binding of 125I-HP 467, HEK 293 cells expressing MCR-1, TRG 2414 library
[2] = inhibition of binding of 125I-HP 467, HEK 293 cells expressing MCR-4, TRG 2414 library
[3] = TRG 2406 and TRG 2407 libraries, inhibition of binding of 125I-HP 467
[4] = TRG 2414 library, inhibition of binding of 125I-HP 467, HEK 293 cells expressing MCR-1
[5] = TRG 2414 library, inhibition of binding of 125I-HP 467, HEK 293 cells expressing MCR-4
[6] = inhibition of binding of 125I-HP 467, HEK 293 cells expressing MCR-1
[7] = inhibition of binding of 125I-HP 467, HEK 293 cells expressing MCR-4
[8] = competition with 125I-HP 467, HEK 293 cells expressing MCR-1
[9] = competition with 125I-HP 467, HEK 293 cells expressing MCR-4
[10] = TRG 2408 and TRG 2409 libraries, inhibition of 125I-HP 467 binding

T1 sequence (Q01726 whole entry): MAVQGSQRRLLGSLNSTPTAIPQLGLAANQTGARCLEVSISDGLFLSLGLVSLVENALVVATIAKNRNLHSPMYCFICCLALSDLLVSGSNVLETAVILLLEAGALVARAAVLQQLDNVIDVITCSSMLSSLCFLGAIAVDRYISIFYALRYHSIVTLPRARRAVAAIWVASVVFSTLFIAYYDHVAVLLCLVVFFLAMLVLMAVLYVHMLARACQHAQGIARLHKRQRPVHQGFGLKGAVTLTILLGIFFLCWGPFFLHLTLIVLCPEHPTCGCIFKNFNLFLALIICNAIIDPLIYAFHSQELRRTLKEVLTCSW

Compound: CNC(CN)CCCCN1Cc2ccccc2C(CNCc2ccccc2OC)C1c1ccc(Cl)cc1Cl (mixture of isomers) [TRG 2407-14]
- IC50 (MCR-1; [3]): 0.37 µM
- IC50 (MCR-4; [3]): 0.41 µM

Compound: COc1ccc(CCNCC2c3ccccc3CN(CCCCC(CN)NCc3ccccc3)C2c2ccccc2Br)cc1 (centres unmarked) [Cmpd 227]
- IC50 (MCR-1; [4]): 4.49 µM
- IC50 (MCR-4; [5]): 3.71 µM

Compound: NCC(N)CCCCN1Cc2ccccc2C(CNCCc2cccc(Cl)c2)C1c1ccc(Cl)cc1Cl (centres unmarked) [Cmpd 244]
- IC50 (MCR-1; [4]): 44.1 µM
- MC-4 IC50 (MCR-4; [5]): no fit

Compound: CNC(CN)CCCCN1Cc2ccccc2C(CNCc2ccccc2O)C1c1ccc(Oc2ccccc2)cc1 (centres unmarked) [TRG 2406-13]
- IC50 (MCR-1; [3]): 0.18 µM
- IC50 (MCR-4; [3]): 1.29 µM

Compound: COc1ccc(CCNCC2c3ccccc3CN(CCCCC(CN)NCc3ccc(C)cc3)C2c2cc(C(F)(F)F)cc(C(F)(F)F)c2)cc1 (centres unmarked) [TRG 2421-12]
- IC50 (MCR-1; [6]): 2.57 µM
- IC50 (MCR-4; [7]): 1.4 µM

Compound: CNCCNC(CN)CCCCN1Cc2ccccc2C(CNC2CCCCC2)C1c1ccc(-c2ccccc2)cc1 (mixture of isomers) [TRG 2408-24]
- IC50 (MCR-1; [10]): 1.94 µM
- IC50 (MCR-4; [10]): 17.1 µM

Compound: NCCNC(CN)CCCN1Cc2ccccc2C(CNC2CCCCC2)C1c1ccc(-c2ccccc2)cc1 (centres unmarked) [TRG 2408-83]
- IC50 (MCR-1; [10]): 1.77 µM
- IC50 (MCR-4; [10]): 11.1 µM

Compound: NCC(CCCCN1Cc2ccccc2C(CNCCc2ccccc2)C1c1cc(C(F)(F)F)cc(C(F)(F)F)c1)NCc1ccc(-c2ccccc2)cc1 (centres unmarked) [TRG 2421-5]
- IC50 (MCR-1; [6]): 11.2 µM
- IC50 (MCR-4; [7]): 9.41 µM

Compound: COc1ccc(CCNCC2c3ccccc3CN(CCCCC(CN)NCc3ccc(Br)cc3)C2c2cc(C(F)(F)F)cc(C(F)(F)F)c2)cc1OC (centres unmarked) [TRG 2421-18]
- IC50 (MCR-1; [6]): 4.79 µM
- IC50 (MCR-4; [7]): 1.35 µM

Compound: CNC(CN)CCCCN1Cc2ccccc2C(CNc2cccc(O)c2)C1c1ccc(Cl)cc1Cl (centres unmarked) [TRG 2407-7]
- IC50 (MCR-1; [3]): 4.38 µM
- MC-4 IC50 (MCR-4; [3]): no fit

Compound: NCC(CCCCN1Cc2ccccc2C(CNCc2ccccc2)C1c1ccccc1Br)NCc1ccccc1 (centres unmarked) [Cmpd 231]
- IC50 (MCR-1; [4]): 11 µM
- IC50 (MCR-4; [5]): 9.13 µM

Compound: CCCOc1ccc(C2C(CNC3CCCCCC3)c3ccccc3CN2CCCCC(CN)NCc2ccccc2)cc1 (centres unmarked) [Cmpd 195]
- IC50 (MCR-1; [4]): 1.38 µM
- IC50 (MCR-4; [5]): 4.07 µM

Compound: CNC(CN)CCCCN1Cc2ccccc2C(CN2CCOCC2)C1c1ccc(Cl)cc1Cl (centres unmarked) [TRG 2407-33]
- IC50 (MCR-1; [3]): 6.9 µM
- IC50 (MCR-4; [3]): 6.02 µM

Compound: NC[C@H](N)CCCCN1Cc2ccccc2C(CNC2CCCCC2)C1c1ccc(-c2ccccc2)cc1 (some centres unmarked) [TRG 2408-51]
- IC50 (MCR-1; [10]): 3.19 µM
- IC50 (MCR-4; [10]): 29.3 µM

More lines, now with the values ahead:

- MC-1 IC50 (MCR-1; [1]): no fit
- IC50 (MCR-4; [2]): 49.2 µM
Compound: COc1ccc(CCNCC2c3ccccc3CN(CCCCC(CN)NCC(C)c3ccc(CC(C)C)cc3)C2c2cccc(Oc3ccccc3)c2)cc1 (centres unmarked) [TRG 2414-108]

- MC-1 IC50 (MCR-1; [6]): no fit
- IC50 (MCR-4; [7]): 63.9 µM
Compound: CCNC(CN)CCCCN1Cc2ccccc2C(CN)C1c1ccc(O)cc1 (centres unmarked) [TRG 2415-15]

- IC50 (MCR-1; [6]): 0.14 µM
- IC50 (MCR-4; [7]): 1.59 µM
Compound: CCNc1ccc(C2C(CNC3CCCCC3)c3ccccc3CN2CCCC(CN)NCCC2CCCCC2)cc1 (centres unmarked) [TRG 2411-173]

- IC50 (MCR-1; [1]): 1.96 µM
- IC50 (MCR-4; [2]): 4.22 µM
Compound: CCCOc1ccc(C2C(CNCCc3cccc(Cl)c3)c3ccccc3CN2CCCCC(N)CN)cc1 (centres unmarked) [TRG 2414-173]

- IC50 (MCR-1; [8]): 1.22 µM
- IC50 (MCR-4; [9]): 1.46 µM
Compound: COCCNC(CN)CCCN1Cc2ccccc2C(CN)C1c1ccc(-c2ccccc2)cc1 (centres unmarked) [TRG 2411-146]

- IC50 (MCR-1; [8]): 0.1 µM
- IC50 (MCR-4; [9]): 0.63 µM
Compound: CCCCNc1ccc(C2C(CN)c3ccccc3CN2CCCC(CN)NCCc2ccc(OC)cc2)cc1 (centres unmarked) [TRG 2409-223]

- IC50 (MCR-1; [1]): 37 µM
- MC-4 IC50 (MCR-4; [2]): no fit
Compound: COc1cccc(CNCC2c3ccccc3CN(CCCCC(CN)NCC(C)c3ccc(CC(C)C)cc3)C2c2ccc(Oc3ccccc3)cc2)c1 (centres unmarked) [TRG 2414-140]

- IC50 (MCR-1; [8]): 0.09 µM
- IC50 (MCR-4; [9]): 2.05 µM
Compound: CCNc1ccc(C2C(CNC3CCCCC3)c3ccccc3CN2CCCCC(CN)NCc2ccc(Cl)cc2)cc1 (centres unmarked) [TRG 2411-55]

- IC50 (MCR-1; [1]): 9.64 µM
- IC50 (MCR-4; [2]): 6.76 µM
Compound: COc1cccc(CNCC2c3ccccc3CN(CCCCC(CN)NCc3ccccc3)C2c2cc(C(F)(F)F)cc(C(F)(F)F)c2)c1 (centres unmarked) [TRG 2414-59]

- IC50 (MCR-1; [10]): 7.52 µM
- IC50 (MCR-4; [10]): 12 µM
Compound: NCC(N)CCN1Cc2ccccc2C(CNC2CCCCC2)C1c1ccc(-c2ccccc2)cc1 (mixture of isomers) [TRG 2408-111]

- MC-1 IC50 (MCR-1; [1]): no fit
- MC-4 IC50 (MCR-4; [2]): no fit
Compound: COc1ccc(CCNCC2c3ccccc3CN(CCCCC(CN)NCC(C)c3ccc(CC(C)C)cc3)C2c2ccc(Oc3ccccc3)cc2)cc1 (centres unmarked) [TRG 2414-148]
